Laboratory results reported in PubChem BioAssay AID330 (DTP/NCI, 2004).
Values joined by “and” are separate entries in the source; they are usually repeats but may differ in a detail not shown here. Identical values can stand only once. Toxic doses and inconclusive results are not listed.

Tested on: P388 leukemia ip, CD2F1 mice, survival T/C
Experiment: NCI In Vivo Anticancer Drug Screen. Data for tumor model P388 Leukemia (intraperitoneal) in CD2F1 (CDF1) mice
Conditions: endpoint: median survival time, higher = longer survival
In short: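 Mice carrying the transplanted tumor received test compound or vehicle. Survival was recorded in each group, and the value is the treated-group measurement divided by that of the vehicle-treated control group.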

[1] = dose: 100.0 mg/kg/injection, schedule: Q04DX003 (ip), vehicle: saline with Tween-80
[2] = dose: 200.0 mg/kg/injection, schedule: Q04DX003 (ip), vehicle: saline with Tween-80
[3] = dose: 50.0 mg/kg/injection, schedule: Q01DX009 (ip), vehicle: saline
[4] = dose: 100.0 mg/kg/injection, schedule: Q01DX009 (ip), vehicle: saline
[5] = dose: 200.0 mg/kg/injection, schedule: Q01DX009 (ip), vehicle: saline
[6] = dose: 50.0 mg/kg/injection, schedule: Q01DX005 (ip), vehicle: Klucel (hydroxypropylcellulose) (HPC)
[7] = dose: 200.0 mg/kg/injection, schedule: Q01DX005 (ip), vehicle: Klucel (hydroxypropylcellulose) (HPC)
[8] = dose: 50.0 mg/kg/injection, schedule: Q01DX009 (ip), vehicle: saline with Tween-80
[9] = dose: 100.0 mg/kg/injection, schedule: Q01DX009 (ip), vehicle: saline with Tween-80
[10] = dose: 200.0 mg/kg/injection, schedule: Q01DX009 (ip), vehicle: saline with Tween-80

Structure (SMILES): COC(=O)Nc1nc2ccc(C(=O)OC(C)C)cc2[nH]1
- T/C [1]: 111 % of control and 116 % of control
- T/C [2]: 118 % of control
- T/C (dose: 800.0 mg/kg/injection, schedule: Q04DX003 (ip), vehicle: saline with Tween-80): 155 % of control

Structure (SMILES): CC(=O)OCC1OC(n2nc(/C=C/c3ccco3)c(=O)n(-c3ccccc3)c2=S)C(OC(C)=O)C(OC(C)=O)C1OC(C)=O (stereo unspecified)
- T/C [1]: 107 % of control
- T/C [2]: 100 % of control
- T/C (dose: 400.0 mg/kg/injection, schedule: Q04DX003 (ip), vehicle: saline with Tween-80): 101 % of control

Structure (SMILES): COc1ccc(/C(Cc2ccccc2)=N/NS(=O)(=O)c2ccc(C)cc2)cc1
- T/C [3]: 89 % of control
- T/C [4]: 101 % of control
- T/C [5]: 98 % of control

Structure (SMILES): CN(C)c1ccc(/C=[N+](\C)[O-])cc1
- T/C [3]: 91 % of control
- T/C [4]: 98 % of control
- T/C [5]: 95 % of control

Structure (SMILES): Cc1ccc(S(=O)(=O)NC(CN(CC(=O)O)N=O)C(=O)O)cc1 (stereo unspecified)
- T/C [6]: 97 % of control
- T/C (dose: 100.0 mg/kg/injection, schedule: Q01DX005 (ip), vehicle: Klucel (hydroxypropylcellulose) (HPC)): 96 % of control
- T/C [7]: 98 % of control

Structure (SMILES): Cc1nc2cc(C(=O)NC=O)c3n[nH]nc3c2n1C
- T/C (dose: 4.0 mg/kg/injection, schedule: Q01DX005 (ip), vehicle: DMSO): 98 % of control
- T/C (dose: 8.0 mg/kg/injection, schedule: Q01DX005 (ip), vehicle: DMSO): 103 % of control
- T/C (dose: 16.0 mg/kg/injection, schedule: Q01DX005 (ip), vehicle: DMSO): 94 % of control
- T/C (dose: 32.0 mg/kg/injection, schedule: Q01DX005 (ip), vehicle: DMSO): 93 % of control

Structure (SMILES): CC1(C)CO[Se](=O)OC1
- T/C (dose: 3.13 mg/kg/injection, schedule: Q01DX009 (ip), vehicle: saline): 114 % of control

Structure (SMILES): O=C(c1ccccc1)C1(c2ccccc2)CC1
- T/C [8]: 104 % of control
- T/C [9]: 104 % of control
- T/C [10]: 104 % of control
- T/C (dose: 400.0 mg/kg/injection, schedule: Q01DX009 (ip), vehicle: saline with Tween-80): 99 % of control

Structure (SMILES): COc1ccc(NS(=O)(=O)c2ccc(NC(=O)NCCCl)cc2)nn1
- T/C (dose: 25.0 mg/kg/injection, schedule: Q01DX005 (ip), vehicle: Klucel (hydroxypropylcellulose) (HPC)): 98 % of control
- T/C [6]: 98 % of control
- T/C [7]: 98 % of control

Structure (SMILES): O=C(/C=C/c1ccc2c(c1)OCO2)c1ccc(Cl)cc1
- T/C [8]: 86 % of control
- T/C [9]: 100 % of control
- T/C [10]: 95 % of control

Structure (SMILES): COc1ccc(-c2coc3c4c(ccc3c2=O)OCO4)cc1OC
- T/C (dose: 9.75 mg/kg/injection, schedule: Q01DX005 (ip), vehicle: Klucel (hydroxypropylcellulose) (HPC)): 94 % of control
- T/C (dose: 19.5 mg/kg/injection, schedule: Q01DX005 (ip), vehicle: Klucel (hydroxypropylcellulose) (HPC)): 94 % of control
- T/C (dose: 39.0 mg/kg/injection, schedule: Q01DX005 (ip), vehicle: Klucel (hydroxypropylcellulose) (HPC)): 87 % of control
- T/C (dose: 78.0 mg/kg/injection, schedule: Q01DX005 (ip), vehicle: Klucel (hydroxypropylcellulose) (HPC)): 86 % of control

Structure (SMILES): CB1NN=C(C)c2ccsc21
- T/C [8]: 110 % of control

Structure (SMILES): O=C(O)Cc1cccc(=O)c(O)c1C(=O)O
- T/C (dose: 50.0 mg/kg/injection, schedule: Q01DX005 (ip), vehicle: saline with Tween-80): 98 % of control
- T/C (dose: 100.0 mg/kg/injection, schedule: Q01DX005 (ip), vehicle: saline with Tween-80): 104 % of control
- T/C (dose: 200.0 mg/kg/injection, schedule: Q01DX005 (ip), vehicle: saline with Tween-80): 96 % of control

Structure (SMILES): O=C1CCC2CCCCC2C1 (stereo unspecified)
- T/C (dose: 50.0 mg/kg/injection, schedule: Q01DX009 (ip), vehicle: Klucel (hydroxypropylcellulose) (HPC)): 97 % of control
- T/C (dose: 100.0 mg/kg/injection, schedule: Q01DX009 (ip), vehicle: Klucel (hydroxypropylcellulose) (HPC)): 104 % of control
- T/C (dose: 200.0 mg/kg/injection, schedule: Q01DX009 (ip), vehicle: Klucel (hydroxypropylcellulose) (HPC)): 88 % of control
